In patent US6063773A, “Cellulose sulfate for use as antimicrobial and contraceptive agent” (Polydex Pharmaceuticals Ltd., priority 1995, dated 2000):

How the values were obtained:
HIV [1] = settings: known from the art; cited from earlier work
[2] = system: Herpes Simplex Virus (HSV); settings: known from the art; cited from earlier work
rabbit spermatozoa = assay: Fertilization outcome after artificial insemination of spermatozoa pretreated with polysaccharides; assay type: in vivo; settings: for anti-fertility effect of treating spermatozoa: spermatozoa treated with comparator polysaccharide
Description: FIG. 1 is a table showing fertilization outcome after artificial insemination of spermatozoa pretreated with different polysaccharides.
FIG. 1 illustrates the antifertility effect of cellulose sulfate on rabbit spermatozoa at a concentration as low as 0.1%.

[3] = if used frequently; cited from earlier work
[4] = rabbit, in vivo
N. gonorrhea = assay: Infectivity of N. gonorrhea; assay type: cell-based; settings: FIG. 7
Description: FIG. 7 is a table illustrating the effects of cellulose sulfate on the infectivity of N. gonorrhea.
(§1) Moreover, cellulose sulfate of the present invention at 1.8% has no effect on normal vaginal flora, namely Lactobacilli (FIG. 8).

HSV = HSV infectivity experiments; assay type: cell-based; settings: in vitro, FIG. 6
Description: FIG. 6 is a table providing the results of HSV infectivity experiments.

HIV [5] = assay: HIV inhibition assay; assay type: cell-based; settings: concentration of 0.005%, in vitro, FIG. 5
Description: FIG. 5 is a table illustrating the results of HIV inhibition assay experiments.

Lactobacilli = assay: Growth of Lactobacilli; assay type: cell-based; settings: 1.8%, FIG. 8
Description: FIG. 8 is a table illustrating the effects of cellulose sulfate on the growth of Lactobacilli.
as §1

conception in rabbits = assay: Contraceptive efficacy when applied vaginally; assay type: in vivo, rabbit
Description: FIG. 2 is a table showing the contraceptive efficacy of cellulose sulfate when applied vaginally.

spermatozoa = assay: Cervical mucus penetration experiments; assay type: cell-based; settings: 1% concentration, in vitro, FIG. 3
Description: FIG. 3 is a table providing the results of cervical mucus penetration experiments.

human spermatozoa = assay: Acrosome reaction of human spermatozoa; assay type: cell-based; settings: FIG. 4
Description: FIG. 4 is a table illustrating the influence of cellulose sulfate on acrosome reaction of human spermatozoa.
Acrosome refers to the anterior organelle of the sperm head necessary for fertilization of an egg by the sperm.

[6] = system: chlamydial infection of HeLa cells; assay: Anti-chlamydial effect, chlamydial infection of HeLa cells; assay type: cell-based; settings: 100 μg/ml, FIG. 9
Description: FIG. 9 is a table illustrating anti-chlamydial effects of cellulose sulfate .
FIG. 9 illustrates anti-chlamydial effect of cellulose sulfate. At a concentration of 100 μg/ml, cellulose sulfate inhibits chlamydial infection of HeLa cells by 91%.

dextran sulfate
HIV infectivity in vitro (HIV [1]): inhibit HIV infectivity in vitro
HSV inhibition [2]: inhibit Herpes Simplex Virus (HSV)
anti-fertility effect of treating spermatozoa (rabbit spermatozoa): little or no anti-fertility effect

nonoxynol-9
effect on natural vaginal flora [3]: inactivates the natural protective vaginal flora
irritation of vaginal mucus membrane [3]: causes irritation to the mucus membrane of the vagina

heparin sulfate
HIV infectivity in vitro (HIV [1]): inhibit HIV infectivity in vitro
HSV inhibition [2]: inhibit HSV infectivity

heparin [reference compound]
anti-fertility effect of treating spermatozoa (rabbit spermatozoa): little or no anti-fertility effect

cellulose sulfate
vaginal irritation [4]: minimal vaginal irritation
vaginal irritation in combination with nonoxynol-9 [4]: does not cause an increase in the vaginal irritation of nonoxynol-9
concentration that can completely kill N. gonorrhea (N. gonorrhea): at least 0.01%
concentration inhibiting infection of human cells by HSV (HSV): ≤ 0.00001%
binding of HIV to human cells (HIV [5]): inhibits the binding of HIV to human cells
effect on normal vaginal flora, Lactobacilli (Lactobacilli): no effect
percentage of fertilized oocytes compared with nonoxynol-9 (conception in rabbits; 5% cellulose sulfate vs 2.2% commercial preparation of nonoxynol-9, intravaginal, rabbits): as effective or more effective than nonoxynol-9
risk of conception (conception in rabbits; 5% formulation applied intra-vaginally in rabbits, FIG. 2): reduces the risk of conception
penetration by spermatozoa into the cervical mucus (spermatozoa): impedes penetration by spermatozoa into the cervical mucus membrane in vitro, and to a significantly greater extent than dextran sulfate
acrosomal loss in human spermatozoa (human spermatozoa): induces acrosomal loss in human spermatozoa, and to a significantly greater extent than heparin or dextran sulfate
conception in rabbits inseminated with treated spermatozoa (rabbit spermatozoa; pre-treatment of spermatozoa with 1% cellulose sulfate): effectively prevented conception
concentration showing antifertility effect on rabbit spermatozoa (rabbit spermatozoa; pre-treatment of spermatozoa, artificial insemination, FIG. 1): ≤ 0.1%
inhibition of chlamydial infection of HeLa cells [6]: 91%
